The record followed here is US8404866B2, “Substituted heterocyclic mercaptosulfonamide metalloprotease inhibitors” (Florida State University Research Foundation, priority 2008, dated 2013).

Assay type in all cases: biochemical
The target in assay [1] is T1, MMP-26 (EDM; human endometase) (Homo sapiens, UniProt Q9NRE1).
T1 sequence (Q9NRE1 90-261): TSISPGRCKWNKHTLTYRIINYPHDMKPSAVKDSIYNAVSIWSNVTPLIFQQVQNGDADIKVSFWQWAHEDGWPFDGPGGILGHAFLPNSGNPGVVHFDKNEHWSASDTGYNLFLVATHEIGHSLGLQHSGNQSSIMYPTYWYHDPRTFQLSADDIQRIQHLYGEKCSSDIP
Briefly: Enzyme kinetic assay, inhibition of MMP-26. The settings on record: read-out: Ki (value in parentheses), EDM MMP-26. An excerpt:
(§1) The following protocol was used to obtain the data found in the following table. Materials: The fluorescent peptide substrates for matrix metalloproteinases (MMPs) used were purchased from Bachem Chem. Co. The metal salts and Brij-35 were purchased from Fisher Scientific Inc. All other chemicals were purchased from Sigma-Aldrich Chem. Co. The sources and biochemical characterizations of multiple MMPs, including MMP-1/human fibroblast collagenase (HFC), MMP-2/human fibroblast gelatinase (HFG), MMP-8/human neutrophil collagenase (HNC), and MMP-9/human neutrophil gelatinase (HNG), MMP-7/human matrilysin (MLN), MMP-3/human fibroblast stromelysin-1 (HFS), human recombinant catalytic domain of membrane-type 1 matrix metalloproteinase (cdMT1-MMP), catalytic domain of MMP-12/metalloelastase (cdMET), and MMP-26/human endometase (EDM) were described previously (Sang, Q. X., Birkedal-Hansen, H., and Van Wart, H. E. Proteolytic and non-proteolytic activation of human neutrophil progelatinase B. Biochim. Biophys. Acta. 1995; 1251, 99-108; Sang, Q. A., Bodden, M. K., and Windsor, L. J. Activation of human progelatinase A by collagenase and matrilysin: activation of procollagenase by matrilysin. J. Protein. Chem. 1996; 15, 243-253; Li, H., Bauzon, D. E., Xu, X., Tschesche, H., Cao, J., and Sang, Q.-X. A. Immunological characterization of cell-surface and soluble forms of membrane type 1 matrix metalloproteinase in human breast cancer cells and in fibroblasts. Molec. Carcinog. 1998; 22, 84-94; Park, H. I., Ni, J., Gerkema, F. E., Liu, D., Belozerov, V. E., and Sang, Q.-X. A. Identification and characterization of human endometase (Matrix metalloproteinase-26) from endometrial tumor. J. Biol. Chem., 2000; 275, 20540-20544). The active concentrations of MMPs were determined by titration with GM6001, a tight-binding MMP inhibitor, as described previously (Park, H. I., Turk, B. E., Gerkema, F. E., Cantley, L. C., and Sang, Q.-X. A. Peptide substrate specificities and protein cleavage sites of human endometase/matrilysin-2/matrix metalloproteinase-26. J. Biol. Chem. 2002; 277, 35168-35175).
(§2) The active inhibitor concentrations were estimated by titrating the mercapto group with 5,5′-dithiobis(2-nitrobenzoic acid) (DTNB; Ellman's reagent) as described previously (Ellman, G. L. A colorimetric method for determining low concentrations of mercaptans. Arch. Biochem. Biophys. 1958; 74, 443-450; Ellman, G. L. Tissue sulfhydryl groups. Arch. Biochem. Biophys. 1959; 82, 70-77; Riddles, P. W., Blakeley, R. L., and Zerner, B. Ellman's reagent: 5,5′-dithiobis(2-nitrobenzoic acid)—a reexamination. Anal. Biochem. 1979; 94, 75-81). Briefly, the reaction of DTNB with the mercapto group produces 2-nitro-5-thiobenzoic acid (TNB). The concentration of TNB is then measured by monitoring the absorbance at 412 nm. Cysteine was used to generate the standard curve with a molar extinction coefficient of 14,000±500 M^−1 cm^−1, which is close to the value in the literature (Riddles, P. W., Blakeley, R. L., and Zerner, B. Ellman's reagent: 5,5′-dithiobis(2-nitrobenzoic acid)—a reexamination. Anal. Biochem. 1979; 94, 75-81).
(§3) The substrate Mca-PLGLDpaAR-NH2 was used to measure inhibition constants (Knight, C. G., Willenbrock. F., and Murphy, G. A novel coumarin-labelled peptide for sensitive continuous assays of the matrix metalloproteinases. FEBS Lett. 1992; 296, 263-266). Enzymatic assays were performed at 25° C. in 50 mM HEPES buffer at pH 7.5 in the presence of 10 mM CaCl2, 0.2 M NaCl, and 0.01% or 0.05% Brij-35 with substrate concentrations of 1 μM. The release of product was monitored by measuring fluorescence (excitation and emission wavelengths of 328 nm and 393 nm, respectively) with a Perkin Elmer Luminescence Spectrophotometer LS 50B connected to a temperature controlled water bath. All stock solutions of inhibitors were in dimethyl sulfoxide. […]

Assay [2] concerns the target T2, MMP-1 (HFC; human fibroblast collagenase) (Homo sapiens, UniProt P03956).
T2 sequence (P03956 100-469): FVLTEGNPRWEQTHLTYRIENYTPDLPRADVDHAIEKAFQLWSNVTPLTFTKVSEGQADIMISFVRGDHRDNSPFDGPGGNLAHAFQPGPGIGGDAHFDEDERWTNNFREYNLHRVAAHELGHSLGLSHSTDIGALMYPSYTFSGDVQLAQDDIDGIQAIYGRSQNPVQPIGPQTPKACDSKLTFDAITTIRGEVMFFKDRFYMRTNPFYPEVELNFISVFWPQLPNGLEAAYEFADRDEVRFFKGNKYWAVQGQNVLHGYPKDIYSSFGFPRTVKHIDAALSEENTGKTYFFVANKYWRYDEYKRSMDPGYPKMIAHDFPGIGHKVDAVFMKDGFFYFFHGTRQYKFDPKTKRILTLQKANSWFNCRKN
Put plainly: Enzyme kinetic assay, inhibition of MMP-1. The following applies: for IC50: 25° C., pH 7.5, substrate 1 μM, read-out: IC50 (value without parentheses), HFC MMP-1; for Ki: read-out: Ki (value in parentheses), HFC MMP-1.
From the text: as §1, §2, §3

Assay [3] concerns the target MMP-3 (HFS; human fibroblast stromelysin-1) (Homo sapiens, UniProt P08254). Briefly: Enzyme kinetic assay, inhibition of MMP-3. The following applies: for Ki: read-out: Ki (value in parentheses), HFS MMP-3; for IC50: 25° C., pH 7.5, substrate 1 μM, read-out: IC50 (value without parentheses), HFS MMP-3.
From the text: as §1, §2, §3

In assay [4] the target is MMP-13 (COL-3) (Homo sapiens, UniProt P45452). Put plainly: Enzyme kinetic assay, inhibition of MMP-13. The following applies: read-out: Ki (value in parentheses), COL-3 MMP-13.
From the text: as §1, §2, §3

Structures can show the parent of a compound that is named as a salt. Bounds are passed on as bounds.

Sequence of MMP-3 (HFS; human fibroblast stromelysin-1) (P08254 100-477): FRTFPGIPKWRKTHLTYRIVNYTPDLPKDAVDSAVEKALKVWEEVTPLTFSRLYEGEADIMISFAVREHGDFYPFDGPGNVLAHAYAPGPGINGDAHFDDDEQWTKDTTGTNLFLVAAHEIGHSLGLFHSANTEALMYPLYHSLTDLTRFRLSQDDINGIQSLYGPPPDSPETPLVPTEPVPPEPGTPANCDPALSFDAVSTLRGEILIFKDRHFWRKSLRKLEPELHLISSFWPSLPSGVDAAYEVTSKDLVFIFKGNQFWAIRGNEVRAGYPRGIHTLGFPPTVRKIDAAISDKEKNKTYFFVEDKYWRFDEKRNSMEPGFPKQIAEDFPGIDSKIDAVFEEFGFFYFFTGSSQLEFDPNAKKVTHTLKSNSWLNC

`NCCCCCC(=O)N1C[C@H](NS(=O)(=O)c2ccc(Oc3ccccc3)cc2)[C@@H](S)C1` (racemic) [Example 7, (±)-N-(6-Aminohexanoyl)-trans-3-(4-phenoxybenzene-sulfonamido)-4-mercaptopyrrolidine Hydrochloride]: the inhibition constant Ki was determined as 0.004 µM in assay [1], 2 µM in assay [3] and 0.002 µM in assay [4]. The IC50 in assay [2] is > 3 µM.
For `O=C(OCc1ccccc1)N1C[C@H](NS(=O)(=O)c2ccc(Oc3ccccc3)cc2)[C@@H](S)C1` (racemic) [Example 5, (±)-N-(Benzyloxycarbonyl)-trans-3-(4-phenoxybenzenesulfonamido)-4-mercaptopyrrolidine], the Ki in assay [1] came out at 0.072 µM; in assay [3] it was 4.5 µM; in assay [4] it was 0.45 µM. In assay [2], the half-inhibitory concentration (IC50) was > 12.5 µM.
As for `NC(=O)N1C[C@H](NS(=O)(=O)c2ccc(Oc3ccccc3)cc2)[C@@H](S)C1` (racemic) [Example 1, (±)-N-Carbamoyl-trans-3-(4-phenoxybenzenesulfonamido)-4-mercaptopyrrolidine], the Ki in assay [1] came to 0.032 µM; in assay [2], 4.1 µM; in assay [3], 0.46 µM; in assay [4], 0.05 µM.
As for `O=S(=O)(N[C@H]1CNC[C@@H]1S)c1ccc(Oc2ccccc2)cc1` (racemic) [Example 3, (±)-trans-3-(4-Phenoxybenzenesulfonamido)-4-mercaptopyrrolidine Hydrochloride], the values for the Ki in assay [1], in assay [3] and in assay [4] were 0.028 µM, 2.5 µM and 0.035 µM, respectively. The IC50 in assay [2] was ~25 µM.
As for `O=C(NCCN1C(=O)c2ccccc2C1=O)N1C[C@H](NS(=O)(=O)c2ccc(Oc3ccccc3)cc2)[C@@H](S)C1` (racemic) [Example 2, (±)-N-(2-Phthalimidoethylaminocarbonyl)-trans-3-(4-phenoxybenzenesulfonamido)-4-mercaptopyrrolidine], the Ki in assay [1] worked out at 0.041 µM; in assay [2] it was 2.8 µM; in assay [3] it was 0.037 µM; in assay [4] it was 0.027 µM.
For `CC(=O)NCCCCCC(=O)N1C[C@H](NS(=O)(=O)c2ccc(Oc3ccccc3)cc2)[C@@H](S)C1` (racemic) [Example 8, (±)-N-(6-Acetamidohexanoyl)-trans-3-(4-phenoxy-benzenesulfonamido)-4-mercaptopyrrolidine], the Ki in assay [1] stood at 0.003 µM; in assay [3], 0.81 µM; in assay [4] it was 0.0017 µM. In assay [2], the IC50 was > 6 µM.
As to `CN([C@H]1CN(C(N)=O)C[C@@H]1S)S(=O)(=O)c1ccc(Oc2ccccc2)cc1` (racemic) [Example 4, (±)-N-Carbamoyl-trans-3-(N-methyl-4-phenoxybenzenesulfonamido)-4-mercaptopyrrolidine], the Ki amounted to 0.019 µM in assay [1], 0.85 µM in assay [2], 0.35 µM in assay [3] and 0.028 µM in assay [4].
In the case of `CC(=O)NCCCCCC(=O)N1C[C@H](NS(=O)(=O)c2ccc(-c3ccccc3)cc2)[C@@H](S)C1` (racemic) [Example 9, (±)-N-(6-Acetamidohexanoyl)-trans-3-(4-phenylbenzene-sulfonamido)-4-mercaptopyrrolidine], the Ki is 0.27 µM in assay [1] and 0.047 µM in assay [4]. The results for the 50% inhibitory concentration (IC50) in assay [2] and in assay [3] were > 6 µM and ~20 µM, respectively.
In the case of `O=C(OCc1ccccc1)N1C[C@H](NS(=O)(=O)c2ccc(-c3ccccc3)cc2)[C@@H](S)C1` (racemic) [Example 6, (±)-N-(Benzyloxycarbonyl)-trans-3-(4-phenylbenzenesulfonamido)-4-mercaptopyrrolidine], the figures for the Ki in assay [1] and in assay [4] were 0.65 µM and 0.1 µM, respectively. Also, the figures for the IC50 in assay [2] and in assay [3] were > 130 µM and ~7 µM, respectively.
